How the values were obtained:
Format in all cases: cell-based
HT29 cells [1] = assay: Cellular potency in Mitosis Inhibition Assay (MIA), checkpoint abrogation after etoposide; settings: for IC50: Homo sapiens, HT-29, HT29 cells, etoposide pre-treatment, nocodazole, read-out: CHK1 Cellular Potency MIA IC50; for (fold better) Compound 1, CHK1 cellular potency MIA: fold by which Compound 1 is more potent than the compound; for (fold better) Compound 2, CHK1 cellular potency MIA: fold by which Compound 2 is more potent than the compound
Protocol: Assay 2: Cellular Potency in Mitosis Inhibition Assay (MIA)
Checkpoint abrogation by CHK1 kinase function inhibitors in combination with genotoxic agents was assessed using a europium based ELISA assay designed to quantify the number of cells trapped in mitosis after treatment with a genotoxic agent (to induce G2 arrest) followed by a CHK1 inhibitor test compound in combination with nocodazole to abrogate this arrest. HT29 cells were seeded at 10^4 cells per well into 96-well plates in a volume of 160 μL and left to attach for 36 hours. […] After genotoxic drug exposure, the medium was removed and replaced with fresh medium (160 μL). […] CHK1 inhibitor test compounds were added in 40 μL aliquots using quadruplicate wells for each concentration. After 21 hours exposure, the medium was removed and cells were fixed in 4% formaldehyde in phosphate buffered saline (PBS, pH 7.4, pre-cooled to 4° C.) for 30 minutes at 4° C., followed by 100% methanol (pre-cooled to −20° C.) for 10 minutes at ambient temperature. Wells were washed with PBS and blocked with 5% dried milk (Marvel) in Tris-buffered saline (TBS, pH 7.4) at 37° C. for 30 minutes. Each well was washed three times with water containing 0.1% Tween 20. […] Primary antibody was removed and wells were washed with water containing 0.1% Tween 20.
Europium emissions were counted on a Wallac, Victor2 counter (Perkin-Elmer, Bucks UK).

HT29 cells [2] = assay: Selectivity in cells for CHK1-dependent checkpoint abrogation versus cytotoxicity (Activity Index = SRB IC50/MIA IC50); settings: for (fold better) Compound 1, cellular selectivity: fold by which Compound 1 is more selective than the row's compound; for (fold better) Compound 2, cellular selectivity: fold by which Compound 2 is more selective than the row's compound
Protocol: Assay 3: Assessment of Selectivity in Cells for CHK1-Dependent Checkpoint Abrogation Versus Cytotoxicity
Compound cytotoxicity was assessed using a 96 hour sulforhodamine B assay (SRB, Sigma catalog number S9012). HT29 or SW620 cells were seeded at 1.6 to 3.2×10^3 cells per well in 96-well plates in a volume of 160 μL medium and allowed to attach for 36 hours prior to treatment. […] Cells were incubated for 96 hours (four doublings) at 37° C. in a humidified 5% CO2 environment and then fixed and stained with SRB.
The Activity Index (AI), a measure of the selectivity of the CHK1 inhibitor test compounds for effecting CHK1-dependent checkpoint abrogation versus cytotoxicity was calculated from the ratio of the CHK1 inhibitor cytotoxicity IC50 versus the MIA IC50 (i.e., AI=CHK1 inhibitor SRB IC50/MIA IC50), both measured in HT29 cells.

HT29 cells [3] = assay: Cellular efficacy in combination with SN38 (SRB potentiation assay); settings: SRB IC50/Potentiation IC50, HT29 cells, SN38 at its IC50, 96 hours
Protocol: Assay 4: Cellular Efficacy in HT29 or SW620 Colon Carcinoma Cells in Combination with SN38 or Gemcitabine
HT29 or SW620 cells were seeded at 1.6 to 3.2×10^3 cells per well in 96-well plates in a volume of 160 μL medium and allowed to attach for 36 hours prior to treatment.
The Potentiation Index (PI) was calculated as a measure of the ability of the CHK1 inhibitor to enhance SN38 or gemcitabine cytotoxicity and was defined as the ratio of the Cytotoxicity IC50 of the CHK1 inhibitor alone versus the Potentiation IC50 of the CHK1 inhibitor combined with the genotoxic (i.e., PI=CHK1 inhibitor SRB IC50/Potentiation IC50).

| Structure (SMILES) | IC50 (HT29 cells [1]) [nM] | (fold better) Compound 1, CHK1 cellular potency MIA (HT29 cells [1]) [fold] | (fold better) Compound 2, CHK1 cellular potency MIA (HT29 cells [1]) [fold] | (fold better) Compound 1, cellular selectivity (HT29 cells [2]) [fold] | (fold better) Compound 2, cellular selectivity (HT29 cells [2]) [fold] | Cell Efficacy + SN38 in HT29 cells (Potentiation Index) (HT29 cells [3]) [fold] |
| --- | --- | --- | --- | --- | --- | --- |
| N#Cc1cnc(Nc2cc(NC[C@H]3CNCCO3)c(C(F)(F)F)cn2)cn1 [Compound 1, 5-[[4-[[(2R)-Morpholin-2-yl]methylamino]-5-(trifluoromethyl)-2-pyridyl]amino]pyrazine-2-carbonitrile] | 30 |  |  |  |  |  |
| N#Cc1cnc(Nc2cc(NC[C@@H]3CNCCO3)c(C(F)(F)F)cn2)cn1 [Compound 2, 5-[[4-[[(2S)-Morpholin-2-yl]methylamino]-5-(trifluoromethyl)-2-pyridyl]amino]pyrazine-2-carbonitrile] | 18 |  |  |  |  |  |
| N#Cc1cnc(Nc2cc(NCC3CNCCO3)c(C(=O)Nc3ccccc3)cn2)cn1 (stereo not shown) [Compound Y-102] | 800 | ~27 | ~44 | ~5.6 | ~33 |  |
| COCc1ccc(-c2cnc(Nc3cnc(C#N)cn3)cc2NC[C@@H]2CNCCO2)cc1 [Compound Y-148] | 900 | ~30 | ~50 | ~5.9 | ~34 |  |
| COCCOc1ccc(-c2cnc(Nc3cnc(C#N)cn3)cc2NC[C@@H]2CNCCO2)cc1 [Compound Y-149] | 1100 | ~34 | ~61 | ~7.4 | ~43 |  |
| COCC#Cc1cnc(Nc2cnc(C#N)cn2)cc1NC[C@@H]1CNCCO1 [Compound Y-154] | 90 |  |  |  |  |  |
| COC(C)(C)C#Cc1cnc(Nc2cnc(C#N)cn2)cc1NC[C@@H]1CNCCO1 [Compound Y-155] | 120 | ~4 | ~7 | ~2.4 | ~13 | 0.9 |
| COCc1ccc(-c2cnc(Nc3cnc(C#N)cn3)cc2NC[C@H]2CNCCO2)cc1 [Compound Y-156] | 560 | ~19 | ~31 | ~4.8 | ~28 | 1.6 |
| COCCOc1ccc(-c2cnc(Nc3cnc(C#N)cn3)cc2NC[C@H]2CNCCO2)cc1 [Compound Y-157] | 600 | ~20 | ~33 | ~4.1 | ~24 | 2 |
| COCCCc1cnc(Nc2cnc(C#N)cn2)cc1NC[C@H]1CNCCO1 [Compound Y-159] | 700 |  |  |  |  |  |

From patent publication US11787792B2, “5-[[4-[[morpholin-2-yl]methylamino]-5-(trifluoromethyl)-2 Pyridyl]Amino]Pyrazine-2-carbonitrile and therapeutic uses thereof” (priority 2012, dated 2023)
